Measured values published in article PMC5352362, “Molecular and functional evaluation of a novel HIF inhibitor, benzopyranyl 1,2,3-triazole compound” (Oncotarget, 2016).

Experiments:
HIF-1α [1] = molecular target: T1, HIF-1α (Homo sapiens, UniProt Q16665); assay: Immunofluorescence of nuclear HIF-1α in A549 cells; assay type: cell-based; conditions: 1–100 nM, hypoxia 16 h
Procedure: To further confirm the effects of Compound 12 on the inhibition of HIF-1α protein expression, we performed an immunofluorescent assay in A549 cells. Cells were treated with Compound 12 (1–100 nM) for 16 h under hypoxic conditions, and were then fixed with paraformaldehyde. Fixed cells were processed to allow immunostaining of HIF-1α by a HIF-1α antibody.
Figure 4 Compound 12 increased hydroxylation and proteasome-mediated degradation of HIF-1α (A) A549 cells were treated with Compound 12 (at concentrations of 0 nM, 1 nM, 10 nM, and 100 nM) for 16 h. […] Cells were immediately treated with cycloheximide (CHX, 100 μg/mL) for the time indicated, and HIF-1α protein levels were determined by western blotting. β-actin was used as an internal control. Half-life (t1/2) of HIF-1α protein was determined using relative expression levels of HIF-1α. […] The expression levels of HIF-1α, hydroxylated (OH)-HIF-1α at P402 or P564, and PHD2 were determined via western blotting using specific antibodies. […] Relative levels of ubiquitinated HIF-1α were quantified and graphed.
Cells were cultured on coverslips in four-well plates at a density of 1 × 10^5 cells/well, and allowed to attach for 24 h. […] Coverslips were mounted on slides, and cells were observed using fluorescence microscopy at 400X magnification (Carl Zeiss, AG, Germany).

HIF-1α [2] = molecular target: T1, HIF-1α; assay: Western blot of HIF-1α protein in hypoxic A549 cells; assay type: cell-based; conditions: hypoxia 16 h
Procedure: Next, we evaluated the inhibitory effects of the nine aforementioned test compounds on HIF-1α protein accumulation by western blot analyses in A549 cells experiencing hypoxic conditions.
Treatment was under hypoxic conditions for 16 h. Cells were then lysed for western blot analysis, which was conduced with antibodies against HIF-1α and β-actin. Expression levels were quantified by ImageJ (NIH, Bethesda, MO, USA) and graphed. **P < 0.01 versus 1% O2 DMSO (D)-treated control group.
(B, C) After HEK-293 cells (B) and A549 cells (C) were treated with Compound 12 (at concentrations of 0 nM, 0.1 nM, 1 nM, 10 nM, 100 nM, and 1000 nM) under hypoxic conditions for 16 h, expression of HIF-1α was determined by western blot analysis and then graphed. (D, E) Half maximal inhibitory concentration (IC50) values were calculated using GraphPad Prism software, using the quantified HIF-1α levels determined in B and C.
HEK-293 cells and A549 cells were treated with Compound 12, at 0.1–1000 nM concentrations, under hypoxic conditions for 16 h.
Proteins extracted from cells using PRO-PREP (iNtRon Biotech, South Korea) were separated by SDS-PAGE and transferred to a nitrocellulose membrane (Whatman, Maidstone, UK). Membranes were blocked with 5% skim milk in Tris-buffered saline (TBS) containing 0.1% Tween-20 for 30 min at room temperature (RT). After blocking, membranes were incubated with specific primary antibodies overnight at 4°C, followed by incubation with horseradish peroxidase-conjugated mouse- or rabbit-IgG for 1 h at RT. Antibody binding was detected using an enhanced chemiluminescence (ECL) kit (BioRad, Hercules, CA) according to the manufacturer's instructions. Primary antibodies against the following factors were used: HIF-1α (BD Biosciences, San Diego, CA, USA), HIF-1β (Cell Signaling Technology, Danvers, MA, USA), β-actin (Santa Cruz Biotechnology, Santa Cruz, CA, USA), hydroxylated-HIF-1α (P564) (Cell Signaling Technology, Danvers, MA, USA), and PHD2 (Abcam, Cambridge, UK).

HUVECs = assay: BrdU cell proliferation assay, VEGF-induced; assay type: cell-based, human; conditions: VEGF 20 ng/mL
Procedure: (§1) Figure 5 Compound 12 suppressed HIF-1α target gene expression, and confirmation of in vitro results via determination of effects on angiogenesis in vivo (A) A549 cells were treated with Compound 12 (at concentrations of 0 nM, 1 nM, 10 nM, and 100 nM) for 16 h. The mRNA levels of HIF-1α target genes were determined by semiquantitative RT-PCR. β-actin was used as an internal control. D. DMSO vehicle control. N, normoxia; H, hypoxia. (B) A549 cells were treated with serum-reduced culture media containing Compound 12 (at concentrations of 0 nM, 10 nM, and 100 nM) for 16 h. Media supernatant was collected, and secreted VEGF was determined by ELISA after removal of cellular debris. N, normoxia; H, hypoxia. **P < 0.01 versus hypoxia (H) DMSO (D)-treated control. (C) HUVECs were treated with Compound 12, at the indicated concentrations, in the presence of VEGF (20 ng/mL) for 24 h in 1% serum-containing media. […] Cells that migrated through the membrane (8 μm pore size) were stained with hematoxylin and eosin, pictured as shown in upper panel, and counted (graph). *P < 0.05, **P < 0.01 versus VEGF-treated control. […] (F) Compound 12 (0.1 μg and 1 μg dosages) and retinoic acid (RA, positive control) were applied to the ED 4.5 CAM for two days, neovessel formation from the large vessels was observed, and percentages of positive angiogenic eggs (from total eggs tested) were calculated. […]

secreted VEGF = assay: VEGF ELISA of A549 culture media; assay type: cell-based, human; conditions: A549 cells, 10 and 100 nM, 16 h
From the text: As HIF-1α regulates transcription of its target genes, which are involved in angiogenesis, glucose metabolism, and metastasis in tumor progression, we determined the effects of Compound 12 on HIF-1 target gene expression at the mRNA level by semiquantitative RT-PCR. […] Thus, we checked secreted VEGF protein levels in culture media via ELISA.
as §1, with “(B) A549 cells were treated with serum-reduced culture media containing Compound 12 (at concentrations of 0 nM, 10 nM, and 100 nM) for 16 h.” left out, “debris.” for “debris. N, normoxia; H, hypoxia. **P < 0.01 versus hypoxia (H) DMSO (D)-treated control. (C) HUVECs were treated with Compound 12, at the indicated concentrations, in the presence of VEGF (20 ng/mL) for 24 h in 1% serum-containing media.”

T1 sequence (Q16665 whole entry): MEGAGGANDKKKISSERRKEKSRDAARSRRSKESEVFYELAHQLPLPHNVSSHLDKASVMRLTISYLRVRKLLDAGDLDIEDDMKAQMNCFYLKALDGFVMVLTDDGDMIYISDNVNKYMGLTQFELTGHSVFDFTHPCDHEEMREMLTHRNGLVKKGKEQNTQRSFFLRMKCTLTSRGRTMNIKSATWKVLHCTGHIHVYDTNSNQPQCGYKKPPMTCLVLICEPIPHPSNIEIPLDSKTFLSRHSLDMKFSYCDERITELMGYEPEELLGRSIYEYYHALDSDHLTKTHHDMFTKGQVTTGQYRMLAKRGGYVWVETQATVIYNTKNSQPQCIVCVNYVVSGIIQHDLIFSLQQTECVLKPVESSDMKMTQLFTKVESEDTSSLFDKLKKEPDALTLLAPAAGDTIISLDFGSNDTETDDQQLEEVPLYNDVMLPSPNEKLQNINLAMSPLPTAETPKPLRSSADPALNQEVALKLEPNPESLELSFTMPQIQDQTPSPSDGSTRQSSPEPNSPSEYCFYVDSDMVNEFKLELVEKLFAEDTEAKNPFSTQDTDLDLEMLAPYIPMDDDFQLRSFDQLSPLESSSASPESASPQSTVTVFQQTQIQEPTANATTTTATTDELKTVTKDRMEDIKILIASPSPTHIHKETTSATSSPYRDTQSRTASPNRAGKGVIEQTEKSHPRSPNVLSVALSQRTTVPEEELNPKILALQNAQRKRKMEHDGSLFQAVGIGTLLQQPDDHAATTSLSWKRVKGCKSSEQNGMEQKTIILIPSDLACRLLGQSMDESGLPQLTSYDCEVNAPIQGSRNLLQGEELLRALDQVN

accumulation of nuclear HIF-1α (HIF-1α [1]): inhibited in dose-dependent manner
subcellular localization of HIF-1α (HIF-1α [1]): did not affect
inhibition at 0.001 µM (HIF-1α [2]; 1 nM, read-out: downregulation of HIF-1α protein expression): ~50%
inhibitory effect on HIF-1α accumulation (western blot) (HIF-1α [2]; 1 μM): most potent inhibitory effect
inhibition at 1 µM (HIF-1α [2]; 1 μM, compared to hypoxic control, read-out: reduction of HIF-1α protein levels): 80%
SMILES: COc1ccc(-c2cn(CC3(C)C=Cc4cc([N+](=O)[O-])ccc4O3)nn2)cc1 (stereo not shown) [Compound 12, 4-(4-methoxyphenyl)-1-((2-methyl-6-nitro-2H-chromen-2-yl)methyl)-1H-1,2,3-triazole]
VEGF-induced endothelial cell proliferation (BrdU) (HUVECs): significantly inhibited VEGF-induced proliferation
hypoxia-induced VEGF secretion (secreted VEGF): significantly suppressed hypoxia-induced VEGF secretion, in a dose-dependent manner
